# Measured values as given in patent US20170231890A1, “Methods And Compositions For Stimulating Collagen Synthesis In Skin Cells” (ELC Management LLC, priority 2016, published 2017).
# Test system: normal human dermal fibroblasts (NHDF) from a donor
# Test: collagen induction assay (Pro-collagen Type I EIA) in aged fibroblasts
# Type: cell-based
# Settings: for % Increase in Collagen Induction: 5 days, vs DMEM control
# Procedure: Tripeptide-32 was tested at various concentrations for its ability to stimulate collagen production in normal human dermal fibroblasts (“NHDF”) from a donor in a collagen induction assay. Tripeptide-32 was tested at 1× (0.2%) 0.5× (0.1%) and 0.2× (0.04%) concentration diluted in DMEM (“Dulbecco's Modified Eagle Medium”) supplemented with 10% Hyclone® bovine calf serum and 1% Cellgro® penicillin-streptomycin solution (“DMEM”). All percentages are by weight of the total composition.
# Cell Growth and Maintenance. Aged NHDF were obtained from ZenBio. Fibroblasts were cultured in DMEM 1× (Life Tech) supplemented with 10% bovine calf serum (“BCS”) (Hyclone) and 1% PenStrep (“PS”) solution (Cellgro). Cells were regularly maintained; subcultured as needed.
# Plating Cells. Normal human dermal fibroblasts (NHDF, aged) were plated on a 96-well plate in supplemented DMEM (as indicated above). All rows, except for Row A, were seeded with cells (Row A was left blank to allow for background subtraction). Plate was allowed to incubate at standard conditions (37° C., 5% CO2, 95% humidity) overnight.
# Preparation & Treatment of Cells. The following treatments were created in full media (1% P/S and 10% BCS supplemented) DMEM: (1) Laminaria digitata extract (0.5%); Acetyl hexapeptide-8 solution (a mixture of 0.05% Acetyl hexapeptide-8, 99.35% water and the remainder preservatives) (10%); and whey protein (0.1%, solid) with the remainder DMEM (the “Mixture”); (2) Mixture+Tripeptide-32: Laminaria digitata extract (0.5%), Acetyl hexpeptide-8 solution (10%), whey protein (0.1%) and Tripeptide-32 (0.2%) in DMEM at 1× (0.2%), 0.5× (0.1%), and 0.2× (0.04%) concentration; (3) Tripeptide-32 alone at 1× (0.2%), 0.5× (0.1%) and 0.2× (0.04%) concentration. Each treatment (200 ul/well) was added to the corresponding well of the 96-well plate. Treated plate was allowed to incubate at standard conditions (37° C., 5% CO2, 95% humidity) for 5 days.
# Assessment of Collagen Production. Collagen production was assessed using the Pro-collagen Type I collagen EIA Kit (Takara) as per manufacturer's protocol, exactly as described. Plate was read using the Gemini M2E plate reader and results were compared.
# The combination of Tripeptide-32 and a mixture of Acetyl hexapeptide-8, Laminaria digitata extract and whey protein were tested for collagen stimulation in NHDF from a donor. Tripeptide-32 at a concentration of 0.2% was combined with a mixture of Acetyl hexapeptide-8 solution (0.05% Acetyl hexapeptide-8, 99.35% water, remainder preservatives) (10%); 0.5% Laminaria digitata extract solution, and 0.1% whey protein in Supplemented DMEM.
# The tests were performed according to the method in Example 1.
substance,measurement,setting,value
Ser-Thr-Pro-NH2 [Tripeptide-32],collagen synthesis (result in words),0.2× (0.04%),decreased collagen synthesis
same,% Increase in Collagen Induction,0.2× concentration (Tripeptide-32 0.04%),−15.39%
same,collagen synthesis (result in words),0.5× (0.1%) and 1× (0.2%) concentrations,nearly insignificant increase in collagen synthesis
same,% Increase in Collagen Induction,0.5× concentration (Tripeptide-32 0.1%),+1.17%
same,% Increase in Collagen Induction,1.0× concentration (Tripeptide-32 0.2%),+3.27%
